Measurements as given in US11986513B2, “GAL(1-15) and analogues thereof for use in the prevention and/or treatment of alcohol-related effects and disorders” (UNIVERSIDAD DE MÁLAGA, priority 2017, dated 2024).
Like-named read-outs stand apart in the source and are kept apart here.

Key:
rats [1] = test: Locomotor activity (open field), ethanol-reduced locomotion; type: in vivo, rat
Procedure: In this experiment, the effects of GAL(1-15) (3 nmol) on ethanol-reduced locomotion (1.75 g/kg; intraperitoneal (i.p.)) (Vallof et al., 2016) were investigated. Locomotor activity was recorded in rat open field (100×100×50 cm) where animals were individually placed and left to freely explore. Their behaviour was recorded over a 30-minute period by ceiling-mounted video camera, and locomotor activity was analysed using the video-tracking software EthovisionXT. After each assay, all surfaces were cleaned with a paper towel and 70% ethanol solution. For locomotor activity, total distance travelled (cm) and mean speed (cm/s) were recorded. Groups of rats were administered via i.c.v. GAL(1-15) or vehicle 20 minutes before the test; i.p. ethanol (1.75 g/kg) or saline solution administration was performed 5 minutes before the test.

GALR1 [2] = conditions: for GALR1 mRNA expression in the corpus striatum: naive rats, mean ± SEM
Procedure: (§1) The method to perform RNA isolation and RT-PCR was described previously (Millon et al., 2015). Total RNA was isolated from the corpus striatum using RNeasy Lipid Tissue kit (Qiagen, Hilden, Germany). cDNA was obtained using a Reverse Transcriptase Core kit (Eurogentec, Seraing, Belgium). These steps were performed according to the manufacturer's instructions.
(§2) All PCR analyses were performed in triplicate using Power SYBR Green PCR Master Mix (Applied Biosystems, Foster City, USA) in the 7500 RT-PCR system (Applied Biosystems, Foster City, USA). The primer sequences used in this study are:
(§3) The data was analysed using the comparative Ct method and normalised to measurements of glyceraldehyde-3-phosphate dehydrogenase (GAPDH) mRNA.
(§4) Groups of naïve rats were injected i.p. with ethanol at 4 g/kg (Bilbao et al., 2016), dissolved in a 0.9% sterile saline solution (w/v), and 0, 2, and 4 hours after the injection the brains were extracted after a rapid decapitation. The corpus striatum was quickly extracted from all the animals and frozen immediately on solid CO2 until use. The method to perform RNA isolation and RT-PCR was described previously.

GALR2 [3] = conditions: for GALR2 mRNA expression in the corpus striatum: naive rats, mean ± SEM
Procedure: as §1, §2, §3, §4

[4] = test system: hepatic cytosolic alcohol dehydrogenase (ADH)
Procedure: The activity of hepatic cytosolic alcohol dehydrogenase (ADH) in the rats from the two-bottle choice test was analysed. ADH activity has a good correlation with ethanol elimination rates in vivo (Lumeng et al., 1979) and chronic ethanol administration causes an increase in ADH activity (Buris et al., 1985).
The livers were removed 2 hours after i.c.v. injections and frozen in solid CO2 until use. Determination of ADH activity was performed in homogenized liver tissue in a TrisHCl solution (10 mM, pH=8.8; 0.5 mM dithiothreitol) centrifuged at 12.000 g for 10 minutes. ADH activity was evaluated using a microassay adapted to Cobas Mira analyser according to Shephard and colleagues (Shephard et al., 1987). Briefly, 300 μl of NAD solution (2.9 mM in 0.1 M Glycine/NaOH: p=10) was added to 30 μl of sample. The first optical reading was recorded before the addition of 20 μl of 17 mM ethanol, and then the rate of change in absorption of the NADH chromogen was recorded at 340 nm over time on the Cobas Mira analyser at 37° C. One activity unit was defined as the reduction of […] NAD to NADH/min at 37° C.

rats [5] = test: Two-bottle choice test for voluntary ethanol consumption and preference; type: in vivo, rat; conditions: for preference for ethanol compared with GAL / ethanol intake compared with GAL: 3 nmol i.c.v. each
Procedure: Male Sprague—Dawley rats (body weight 225-250 g, age 8 weeks) were obtained from Criffa and maintained in a humidity-controlled and temperature-controlled (20-22° C.) room. The rats in the two-bottle choice paradigm were during the entire protocol maintained on a 12-hour reversed light/dark cycle (lights off at 10 am) whereas the other rats were kept on 12-hour light/dark cycle. The animals had free access to food pellets and tap water. All animal experimentation was conducted in accordance with the University of Malaga Guidelines for the Care and Use of Laboratory Animals.
This protocol has been used previously (Diaz-Cabiale et al., 2011; Millon et al., 2015). Briefly, the rats were anaesthetised intraperitoneally with Equitesin (3.3 ml/kg body weight) and stereotaxically implanted with a unilateral chronic 22-gauge stainless steel guide cannula into the right lateral cerebral ventricle using the following coordinates: 1.4 mm lateral and 1 mm posterior to bregma and 3.6 mm below the surface of the skull (Paxinos, 1986). After surgery, animals were individually housed and allowed a recovery period of 7 days. The injections in the lateral ventricle were performed using a 26-gauge stainless steel injection cannula connected via PE-10 tubing to a Hamilton syringe. The total volume was 5 μl per injection, and the infusion time was 1 minute.
The solutions were prepared freshly, and the peptides were dissolved in artificial cerebrospinal fluid (with a composition of […], […] NaH2CO3, […] KCl, 0.5 nM KH2PO4, 1.2 nM CaCl2, 1.8 nM MgCl2, 0.5 nM Na2SO4, and 5.8 nM D-glucose, pH 7.4). GAL was obtained from NeoMPS, Strasbourg, France; GAL(1-15) and the GALR2 receptor antagonist M871 were obtained from Tocris Bioscience, Bristol, UK.
The two-bottle choice test was used to determine the voluntary ethanol consumption of rats as described previously (Castilla-Ortega et al., 2016). Briefly, after 7 days of water consumption (both bottles), a choice between water and increasing concentrations of ethanol [3, 6, and 10% (v/v)] was offered for 7 days each. A choice between 10% ethanol (v/v) and water was offered for several days until reaching a stable baseline value. Water and ethanol consumption were recorded daily. The position of the bottles was changed every day to avoid preference for location. Water intake (g/kg), ethanol intake (g/kg), and preference ([ethanol consumption/total fluid [water plus ethanol] consumption×100]) were calculated for each animal. Throughout the experiment, evaporation and spillage estimates were calculated using an empty cage with two bottles, one containing water and the other containing the appropriate ethanol solution. In the experiments, a choice between ethanol (10%) and water was offered.
Three sets of experiments were conducted in the two bottle choice paradigm. In the first set of experiments, a dose-response curve of GAL(1-15) was performed. For this, groups of rats received i.c.v. 1 nmol or 3 nmol of GAL(1-15), or vehicle 2, 14, and 24 hours before the measurements. In the second set of experiments, the effects of the two-bottle choice test for GAL and GAL(1-15) were compared. For this, groups of rats received i.c.v. 3 nmol of GAL, 3 nmol of GAL(1-15), or vehicle, 2, 14, and 24 hours before the test. In the last set of experiments, the role of GALR2 was studied; for this, groups of rats received i.c.v. 3 nmol of GAL(1-15) combined with 3 nmol of GALR2 […] before the measurements.

C-Fos = C-Fos mRNA expression in the corpus striatum during voluntary ethanol consumption (RT-PCR); type: in vivo, rat; conditions: 3 nmol i.c.v., 2 hours after administration, two-bottle choice rats, versus vehicle/EtOH
Procedure: (§5) Groups of rats from the two-bottle choice paradigm were killed by decapitation 2 hours after a single i.c.v. administration of 3 nmol of GAL(1-15) or vehicle, and the corpus striatum was dissected and frozen on solid CO2 until mRNA expression analysis.

Rab5 = Rab5 mRNA expression in the corpus striatum during voluntary ethanol consumption (RT-PCR); type: in vivo, rat; conditions: 3 nmol i.c.v., 2 hours after administration, two-bottle choice rats, versus vehicle/EtOH
Procedure: as §5

GALR1 [6] = test: GALR1 mRNA expression in the corpus striatum during voluntary ethanol consumption (RT-PCR); type: in vivo, rat; conditions: 3 nmol i.c.v., 2 hours after administration, two-bottle choice rats, versus vehicle/EtOH
Procedure: as §5

GALR2 [7] = test: GALR2 mRNA expression in the corpus striatum during voluntary ethanol consumption (RT-PCR); type: in vivo, rat; conditions: 3 nmol i.c.v., 2 hours after administration, two-bottle choice rats, versus vehicle/EtOH (p=0.101)
Procedure: as §5

rats [8] = test: Ethanol self-administration (operant model); type: in vivo, rat
Procedure: The use of operant models as substance self-administration models are widely used for performing motivation or hedonic studies. In these models, the animal has to “work” to obtain the reinforcing substance by pressing a lever, which allows the investigator to observe the animal's interest in the substance, as well as to learn the effect of the substance as a reward for the animal (Leeman et al., 2010). The method is performed according to earlier protocols (Alén et al., 2009) with some modifications. The test consists of a two-week training phase in which rats are kept the first 2 to 4 days with a water restriction to facilitate the learning of the task of pressing the lever to obtain the reinforcement. Animals are exposed daily to 30-minute sessions in self-administration boxes (Letica instruments). The boxes are equipped with two retractable levers located on both sides of a liquid dispenser (0.1 mL) positioned in the centre of the box panel. […] Once the training period is over, where all the animals have proven to have learned the task, daily sessions continue to be performed until establishing a stable baseline. Then training begins for ethanol consumption, and for this purpose a gradual increase in ethanol concentration (from 2% to 10%) is performed at the same time as a gradual reduction in saccharin concentration (from 0.16% to 0%) over several days, where after this period the animals become accustomed consuming 10% ethanol. After several sessions to establish a stable baseline, the animals are subjected to placement of a chronic intracerebroventricular cannula, leaving them for several days after this intervention to again establish a stable ethanol consumption baseline. Then the test is performed, consisting of a 30-minute session after administration of the different treatments, recording the number of active lever presses, as well as the number of rewards (FIG. 7).
Two sets of ethanol self-administration experiments were performed. In the first set of experiments, a dose-response curve of GAL(1-15) was performed. For this, groups of rats received i.c.v. GAL(1-15) at doses of 0.3, 1, and 3 nmol, or vehicle. In the second set of experiments, the effect of GAL 3 nmol and GAL(1-15) 3 nmol in ethanol self-administration were compared.

[9] = ethanol 1.75 g/kg i.p., five minutes after administration, open field
[10] = 0 hours after i.p. injection of EtOH (4 g/kg)
[11] = 2 hours after i.p. injection of EtOH (4 g/kg)
[12] = 4 hours after i.p. injection of EtOH (4 g/kg)
[13] = 3 nmol i.c.v. each, 2, 14, 24 hours
[14] = i.c.v., any dose (1 or 3 nmol), any time point

CCO [EtOH, ethanol]
distance travelled (rats [1]; [9]): reduced
mean speed (rats [1]; [9]): reduced
GALR1 mRNA expression in the corpus striatum (GALR1 [2]; [10]): 0.87 ± 0.2
GALR1 mRNA expression in the corpus striatum (GALR1 [2]; [11]): 0.60 ± 0.1
GALR1 mRNA expression in the corpus striatum (GALR1 [2]; [12]): 0.47 ± 0.1
effect on GALR1 expression in the corpus striatum (GALR1 [2]; single injection of ethanol 4 g/kg i.p., at 2 and 4 hours): no effect
GALR2 mRNA expression in the corpus striatum (GALR2 [3]; [10]): 1.21 ± 0.1
GALR2 mRNA expression in the corpus striatum (GALR2 [3]; [11]): 1.23 ± 0.1
GALR2 mRNA expression in the corpus striatum (GALR2 [3]; [12]): 1.44 ± 0.1
effect on GALR2 mRNA levels in the corpus striatum (GALR2 [3]; single injection of ethanol 4 g/kg i.p., any time point): No effects were observed
ADH activity (liver) ([4]; voluntary ethanol intake in two-bottle choice test, i.c.v. cerebrospinal fluid vehicle, mean ± SEM): 313.1 ± 10.6 protein IU/g
ADH activity compared with the baseline group ([4]; voluntary ethanol intake through the two-bottle choice test protocol): significant increase

Gly-Trp-Thr-Leu-Asn-Ser-Ala-Gly-Tyr-Leu-Leu-Gly-Pro-His-Ala (GWTLNSAGYLLGPHA; General formula for GAL 1-15) [GAL(1-15)]
preference for ethanol (rats [5]; 1 nmol i.c.v.): no effects
ethanol intake (rats [5]; 1 nmol i.c.v., all the time points analysed (2, 14, 24 hours)): no effect
food intake, difference between GAL and GAL(1-15) (rats [5]; [13]): No differences were found
water intake, difference between GAL and GAL(1-15) (rats [5]; [13]): No differences were found
preference for ethanol compared with GAL (rats [5]; 2 hours after administration): decreased
ethanol intake compared with GAL (rats [5]; 2 hours after injection): significantly decreased
ethanol intake compared with GAL (rats [5]; 14 hours after injection): significantly decreased
ethanol intake compared with GAL (rats [5]; 24 hours after injection): significantly decreased
preference for ethanol compared with GAL (rats [5]; 24 hours later): maintained
decrease in the preference for ethanol (rats [5]; 3 nmol i.c.v., 2 hours after administration): 90%
ethanol intake (rats [5]; 3 nmol i.c.v., 2 hours after administration, 10% ethanol vs water, versus vehicle): significantly decreased
ethanol intake (rats [5]; 3 nmol i.c.v., 14 hours after administration, 10% ethanol vs water, versus vehicle): significantly decreased
preference for ethanol (decrease) (rats [5]; 3 nmol i.c.v., 24 hours): maintained
ethanol intake (rats [5]; 3 nmol i.c.v., 24 hours after administration, 10% ethanol vs water, versus vehicle): significantly decreased
food intake (rats [5]; [14]): no differences were found
water intake (rats [5]; [14]): no differences were found
mRNA levels of C-Fos in corpus striatum (C-Fos): significant increase
mRNA levels of Rab5 in corpus striatum (Rab5): significant increase
GALR1 mRNA levels in corpus striatum (GALR1 [6]): significant decrease
GALR2 expression in corpus striatum (GALR2 [7]): slight reduction
distance travelled (rats [1]; GAL(1-15) 3 nmol i.c.v. 20 min before test, rats given i.p. ethanol 1.75 g/kg): decreased
distance travelled (rats [1]; GAL(1-15) 3 nmol i.c.v. 20 min before test, rats given systemic saline solution): no such effects were observed
mean speed (rats [1]; GAL(1-15) 3 nmol i.c.v. 20 min before test, rats systemically treated with ethanol 1.75 g/kg): decreased
number of reinforcements in ethanol self-administration (rats [8]; 0.3 nmol i.c.v. 15 min before the test): no effect
number of ethanol reinforcements (rats [8]; 1 nmol i.c.v. 15 min before the test, versus control): significant decrease
number of ethanol reinforcements (reduction) (rats [8]; 3 nmol i.c.v. 15 min before the test, versus control): even more pronounced
number of ethanol reinforcements compared with GAL (rats [8]; 3 nmol i.c.v. each, 15 min before the test): significantly reduces
